{"source": "paper PMC3056842", "about": "(Malaria Journal, 2011)", "key": {"[1]": {"settings": "artesunate 4 mg/kg with Malarone, final day of three day course; second and third trimester pregnant women, Thailand; 90% range 0.9-60.7; cited from earlier work"}, "[2]": {"assay": "Noncompartmental plasma pharmacokinetics of AS and DHA after a single 200 mg oral dose of AS (LC-MS)", "settings": "for CL/F: DHA CL/F; for fraction unbound: DHA FF (free fraction); for Tmax: DHA Tmax; for half-life: DHA T½; for Vd/F: DHA Vd/F", "procedure": "The four tablets were given orally with 240 mL water under medical supervision. A catheter was inserted into a forearm vein for pharmacokinetic sample collection and flushed after each blood draw with saline solution. […] Blood for malaria smears were taken by finger prick at pre-dose and at 12, 24, 30, 36, 42 and 48 hours post-dose. Malaria smears were also performed on days 7, 14 and 28.\nThe persistence of malaria infection and adverse events were tracked for 28 days after SP administration. Babies born from the pregnant women cohort were followed until one year of age and development assessed.\nThe reconstituted extracts were chromatographed isocratically and the compounds detected and quantified by mass spectroscopy.\nConcentrations below the lower limit of quantification were assigned a value of zero.\nThe ratio of the AUC during pregnancy to the AUC at postpartum (after log transformation) was considered a measure of the impact of pregnancy on systemic exposure. […] The \"no effect\" interval was selected based on the dose-ranging study by Angus and coworkers. […] Statistical analyses were performed using SAS/STAT software, version 9.2 (SAS Institute, Inc., Cary, NC, 2008). […] Spearman correlations were used to look for associations among the pregnant and control population. All p-values were 2-sided."}, "[3]": {"set-up": "species or system human", "settings": "in vivo", "procedure": "To determine if women met the eligibility criteria, a complete medical history and physical examination was performed by a study physician; sociodemographic data was collected by a study nurse. Haematocrit was measured using a microhaematocrit centrifuge (Hawksley Haematospin 1400, Hawksley & Sons, Ltd, UK). Thick and thin blood films were stained with Giemsa and then read to determine parasite species and the density of P. falciparum asexual stages. […] Human Immunodeficiency Virus (HIV) serology was determined using the Determine 1/2 HIV Test Kit (Inverness Medical Professional Diagnostics, Princeton, NJ). Liver function was assessed by measuring aspartate aminotransferase (AST) and alanine aminotransferase (ALT) in plasmaPiccolo Portable Chemistry Analyser, Abaxis, USA). Alpha-1-Acid glycoprotein was determined in serum samples using radial immunodiffusion (Kent Laboratories, Bellingham, WA, USA)."}, "[4]": {"tested_on": "Plasmodium falciparum", "assay": "Pharmacodynamics of AS: parasitaemia on malaria smears after dosing", "format": "in vivo", "settings": "for Parasitaemic - n (%) / Parasite density (where > 0): 12 hours after 200 mg oral AS", "procedure": "To determine if women met the eligibility criteria, a complete medical history and physical examination was performed by a study physician; sociodemographic data was collected by a study nurse. Haematocrit was measured using a microhaematocrit centrifuge (Hawksley Haematospin 1400, Hawksley & Sons, Ltd, UK). Thick and thin blood films were stained with Giemsa and then read to determine parasite species and the density of P. falciparum asexual stages. Parasite density, based on examination of at least 200 high-power microscope fields, was calculated as (# trophozoites/#white blood cells)*6000. Human Immunodeficiency Virus (HIV) serology was determined using the Determine 1/2 HIV Test Kit (Inverness Medical Professional Diagnostics, Princeton, NJ). Liver function was assessed by measuring aspartate aminotransferase (AST) and alanine aminotransferase (ALT) in plasmaPiccolo Portable Chemistry Analyser, Abaxis, USA). Alpha-1-Acid glycoprotein was determined in serum samples using radial immunodiffusion (Kent Laboratories, Bellingham, WA, USA). […]"}, "[5]": {"tested_on": "Plasmodium falciparum", "settings": "sigmoid Emax pharmacodynamic model of PCT; cited from earlier work"}, "[6]": {"settings": "female, human, plasma, po, 200 mg, 200 mg oral AS, ante-partum pregnant cases, median [range]"}, "[7]": {"settings": "female, human, plasma, po, 200 mg, 200 mg oral AS, non-pregnant controls, median [range]"}, "[8]": {"settings": "female, human, plasma, po, 200 mg, 200 mg oral AS, post-partum (3 months), median [range]"}}, "note": "Values joined by “and” are separate entries in the source; they are usually repeats but may differ in a detail not shown here. Equal entries are not always repeated. “Also recorded” adds a separate entry of the source."}
{"smiles": "C[C@H]1[C@@H](O)O[C@@H]2O[C@@]3(C)CC[C@H]4[C@H](C)CC[C@@H]1[C@@]24OO3", "note": "[DHA, dihydroartemisinin]", "values": [{"measurement": "median DHA Vd/F", "setting": "[1]", "value": 3.4, "unit": "L/kg"}, {"measurement": "median free AUC for DHA in pregnant women as percentage of non-pregnant controls", "setting": "[2]; 200 mg oral AS", "value": 79, "unit": "%"}, {"measurement": "median total AUC for DHA in pregnant women as percentage of non-pregnant controls", "setting": "[2]; 200 mg oral AS", "value": 62, "unit": "%"}, {"measurement": "DHA AUCall", "setting": "[2]; 200 mg oral AS, ante-partum pregnant cases, median [range]", "value": "1730.5 [1034.7 - 4085.5] ng*h/mL"}, {"measurement": "DHA T½", "setting": "[2]; 200 mg oral AS, non-pregnant controls, median [range]", "value": "1.41 [0.86 - 6.55] h"}, {"measurement": "AUC", "setting": "[2]; female, human, plasma, po, 200 mg, DHA AUCall, 200 mg oral AS, ante-partum pregnant cases, median [range]", "value": 1730, "unit": "ng·h/mL"}, {"measurement": "AUC", "setting": "[2]; female, human, plasma, po, 200 mg, DHA AUCall, 200 mg oral AS, non-pregnant controls, median [range]", "value": 2790, "unit": "ng·h/mL"}, {"measurement": "AUC", "setting": "[2]; female, human, plasma, po, 200 mg, DHA AUCall, 200 mg oral AS, post-partum (3 months), median [range]", "value": 2120, "unit": "ng·h/mL"}, {"measurement": "CL/F", "setting": "[2]; [6]", "value": 23.2, "unit": "mL/min/kg"}, {"measurement": "CL/F", "setting": "[2]; [7]", "value": 17.8, "unit": "mL/min/kg"}, {"measurement": "CL/F", "setting": "[2]; [8]", "value": 21, "unit": "mL/min/kg"}, {"measurement": "Cmax", "setting": "[2]; female, human, plasma, po, 200 mg, DHA Cmax, 200 mg oral AS, ante-partum pregnant cases, median [range]", "value": 905, "unit": "ng/mL"}, {"measurement": "Cmax", "setting": "[2]; female, human, plasma, po, 200 mg, DHA Cmax, 200 mg oral AS, non-pregnant controls, median [range]", "value": 1280, "unit": "ng/mL"}, {"measurement": "Cmax", "setting": "[2]; female, human, plasma, po, 200 mg, DHA Cmax, 200 mg oral AS, post-partum (3 months), median [range]", "value": 980, "unit": "ng/mL"}, {"measurement": "fraction unbound", "setting": "[2]; [6]", "value": 0.21}, {"measurement": "fraction unbound", "setting": "[2]; [7]", "value": 0.18}, {"measurement": "fraction unbound", "setting": "[2]; [8]", "value": 0.19}, {"measurement": "Tmax", "setting": "[2]; [6]", "value": 1.5, "unit": "h"}, {"measurement": "Tmax", "setting": "[2]; [7]", "value": 1.52, "unit": "h"}, {"measurement": "Tmax", "setting": "[2]; [8]", "value": 1.5, "unit": "h"}, {"measurement": "half-life", "setting": "[2]; [6]", "value": 1.28, "unit": "h"}, {"measurement": "half-life", "setting": "[2]; [8]", "value": 1.63, "unit": "h"}, {"measurement": "Vd/F", "setting": "[2]; [6]", "value": "157 L and 2.84 L/kg"}, {"measurement": "Vd/F", "setting": "[2]; [7]", "value": "128 L and 2.45 L/kg"}, {"measurement": "Vd/F", "setting": "[2]; [8]", "value": "158 L and 3 L/kg"}, {"measurement": "Cmax", "setting": "[2]; female, human, plasma, po, 200 mg, median DHA Cmax, 200 mg oral AS, non-pregnant control group", "value": 1280, "unit": "ng/mL"}, {"measurement": "Cmax", "setting": "[2]; female, human, plasma, po, 200 mg, median DHA Cmax, 200 mg oral AS, pregnant group", "value": 905, "unit": "ng/mL"}]}
{"smiles": "C[C@H]1[C@H](OC(=O)CCC(=O)O)O[C@@H]2O[C@@]3(C)CC[C@H]4[C@H](C)CC[C@@H]1[C@@]24OO3", "note": "[AS, artesunate]", "values": [{"measurement": "infant development at one year of age", "setting": "[3]", "value": "normal physical and neurological development"}, {"measurement": "pregnancy outcome", "setting": "[3]", "value": "singleton live births"}, {"measurement": "aparasitaemic at 12 hours among those parasitaemic at t = 0", "setting": "[4]; 200 mg oral AS, 13 of the 14 non-pregnant controls", "value": 93, "unit": "%"}, {"measurement": "aparasitaemic at 12 hrs among those parasitaemic at t = 0", "setting": "[4]; 200 mg oral AS, 21 of the 24 pregnant women", "value": 87.5, "unit": "%"}, {"measurement": "Parasitaemic - n (%)", "setting": "[4]; all pregnant cases, N 26", "value": "3 (11.5)"}, {"measurement": "Parasite density (where > 0)", "setting": "[4]; all pregnant cases, median (interquartile range)", "value": "87 (44 - 286) parasites/μL"}, {"measurement": "Parasitaemic - n (%)", "setting": "[4]; non-pregnant controls, N 25", "value": "1 (4.0)"}, {"measurement": "Parasite density (where > 0)", "setting": "[4]; non-pregnant controls, median", "value": "24 -- parasites/μL"}, {"measurement": "Parasitaemic - n (%)", "setting": "[4]; pregnant cases Window 1 (22-26 wks GA), N 13", "value": "3 (23.1)"}, {"measurement": "Parasite density (where > 0)", "setting": "[4]; pregnant cases Window 1, median (interquartile range)", "value": "87 (44 - 286) parasites/μL"}, {"measurement": "Parasitaemic - n (%)", "setting": "[4]; pregnant cases Window 2 (32-36 wks GA), N 13", "value": "0 (0)"}, {"measurement": "efficacy (in words)", "setting": "[4]; single 200 mg oral dose of AS, second and third trimester pregnant women", "value": "effective; also recorded: rapid clearance of parasitaemia"}, {"measurement": "range of AS AUCs among the subjects", "setting": "[2]; female, human, in vivo, po, 200 mg", "value": "more than 17 fold"}, {"measurement": "AUC", "setting": "[2]; female, human, in vivo, po, 200 mg, median AS AUC", "value": 205, "unit": "ng·h/mL"}, {"measurement": "Hill slope coefficient", "setting": "[5]", "value": 10}]}
